For 43 compounds, IC50 results are on record in patent US9562060B2, “Heterocyclic pyridone compound, and intermediate, preparation method and use thereof” (SHANGHAI HUILUN LIFE SCIENCE & TECHNOLOGY CO., LTD, priority 2011, dated 2017).

Where two headings read alike, the source gives them in different places.

The target in assay [1] is T1, c-Met kinase (Homo sapiens, UniProt P08581).
T1 construct: purchased Invitrogen PV3143
Nature of the assay: Inhibitory activity of compound to c-Met kinases (Z'-LYTE kinase assay kit). The class given is biochemical. As to conditions: Tyr 6 substrate peptide, read-out: Strength of activity (inhibition on c-Met kinase, IC50). How it is done:
The inhibitory activity of the compound to c-Met kinases in vitro is determined through the following method.
The method described below can be used to determine the inhibiting capacity of the compound of the present invention on the c-Met kinase activity, and the inhibiting capacity is represented by IC50. The half inhibitory concentration IC50 (a concentration of the compound for inhibiting the enzyme activity to 50%) of the compound is obtained by: mixing and reacting a certain amount of kinase with a specific substrate and different concentrations of test compound, and then labeling the substrate with an anti-phosphotyrosine antibody and a […], and finally quantitatively determining the c-Met kinase activity through a time-resolved fluorescence method.
The specific experiment is implemented by using a Z′-LYTE kinase assay kit (Invitrogen, item PV4122). First, the test compound is diluted into 8 different concentrations from 100 μM at an interval of 1:5 with an ATP solution (Invitrogen, item PV3227); 5 μL 2×c-Met (Invitrogen, item PV3143) and 2×Z′-LYTE Tyr 6 substrate peptide are respectively taken up, and added to a 384-well microtiter plate, 5 μL diluted different concentrations of test compound are added in sequence, and the lid is closed. The microtiter plate is incubated for 60 min at room temperature (20° C. to 25° C.); and then 5 μL […] is added, and the lid is closed. The microtiter plate is incubated for 60 min at room temperature (20° C. to 25° C.); and then 5 μL termination reagent is added to the reaction well, to terminate the reaction. Finally, the fluorescence intensity (OD400) of each well is determined in a fluorescence analyzer (excitation wavelength: 400 nm). The inhibition rate is calculated, and the half inhibitory concentration (IC50) of the compound is calculated according to the inhibition rates of different concentrations.
For a negative control group, except that test compound (replaced by 5 μL ATP solution) is not added, all the other reagents are added. In addition, an enzyme-free control group (that is, blank group) is set.

The test system of assay [2] is Human gastric cancer cell SNU-5. The experiment in a line: Inhibition of in vitro proliferation of human gastric cancer cell SNU-5 (SRB). It counts as cell-based. As to conditions: SNU-5 cells, 72-hr agent treatment, read-out: Strength of activity (inhibition on SNU-5, IC50). The procedure:
Human gastric cancer cells SNU-5 are cultured in an IMDM medium containing 20% fetal bovine serum, and the culture conditions are 37° C. and 5% CO2. Tumor cells are inoculated in a 96-well plate, and after 24-hr sidewall growth, 9 different concentrations of (1 to 30000 nM) an agent are added, after 72-hr agent treatment, the medium is discarded, the cells are fixed by cold trichloroacetic acid, and then dyed with a sulforhodamine B (SRB) solution. Unbound SRB is washed off, and SRB bound with protein was dissolved with Tris, the OD is determined at a wavelength of 510 nm by a microplate reader, and the cell growth inhibition rate is calculated according to the following equation: Inhibition rate=(OD of control well-OD of administered well)/OD of control well×100%
According to the inhibition rates of different concentrations, the half inhibitory concentration IC50 is calculated by using a Logit method.

T1 sequence (P08581 25-1390): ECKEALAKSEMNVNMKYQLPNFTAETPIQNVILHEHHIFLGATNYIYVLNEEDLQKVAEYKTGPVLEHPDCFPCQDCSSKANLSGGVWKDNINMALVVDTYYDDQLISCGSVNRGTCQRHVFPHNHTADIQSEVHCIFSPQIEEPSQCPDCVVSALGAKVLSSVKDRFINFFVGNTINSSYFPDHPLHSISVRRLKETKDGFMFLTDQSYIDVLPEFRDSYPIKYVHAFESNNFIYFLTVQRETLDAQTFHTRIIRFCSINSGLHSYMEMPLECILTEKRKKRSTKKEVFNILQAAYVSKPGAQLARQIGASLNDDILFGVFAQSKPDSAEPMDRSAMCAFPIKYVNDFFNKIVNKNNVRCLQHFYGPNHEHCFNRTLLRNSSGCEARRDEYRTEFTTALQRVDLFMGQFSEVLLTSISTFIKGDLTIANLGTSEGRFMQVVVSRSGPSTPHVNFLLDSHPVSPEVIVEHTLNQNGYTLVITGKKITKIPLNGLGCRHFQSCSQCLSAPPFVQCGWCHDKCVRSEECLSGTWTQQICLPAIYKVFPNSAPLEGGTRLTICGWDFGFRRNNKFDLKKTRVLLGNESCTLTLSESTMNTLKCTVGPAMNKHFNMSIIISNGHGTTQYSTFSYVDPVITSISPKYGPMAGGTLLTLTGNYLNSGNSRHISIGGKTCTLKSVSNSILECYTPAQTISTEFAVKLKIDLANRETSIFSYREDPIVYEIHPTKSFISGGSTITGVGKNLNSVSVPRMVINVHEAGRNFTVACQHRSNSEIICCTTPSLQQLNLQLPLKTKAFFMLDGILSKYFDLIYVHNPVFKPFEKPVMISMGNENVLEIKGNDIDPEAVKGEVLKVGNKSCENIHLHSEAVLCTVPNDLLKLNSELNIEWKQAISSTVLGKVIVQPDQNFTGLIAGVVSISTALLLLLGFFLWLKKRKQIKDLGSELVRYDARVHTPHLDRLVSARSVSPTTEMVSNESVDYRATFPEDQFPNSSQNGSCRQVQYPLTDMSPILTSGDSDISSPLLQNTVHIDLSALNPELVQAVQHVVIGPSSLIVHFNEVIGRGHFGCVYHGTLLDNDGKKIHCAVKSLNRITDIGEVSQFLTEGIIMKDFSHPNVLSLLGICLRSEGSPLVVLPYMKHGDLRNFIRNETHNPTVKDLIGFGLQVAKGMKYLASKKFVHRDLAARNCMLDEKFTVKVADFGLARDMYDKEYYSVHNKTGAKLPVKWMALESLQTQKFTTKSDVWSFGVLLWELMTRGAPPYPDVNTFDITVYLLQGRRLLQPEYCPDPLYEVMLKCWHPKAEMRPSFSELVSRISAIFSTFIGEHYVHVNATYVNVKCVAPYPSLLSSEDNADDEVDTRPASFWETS

By IC50 is commonly meant the point on the concentration scale where inhibition reaches its midpoint. For `Cn1cnc(-c2cc3nccc(Oc4ccc(NC(=O)c5cc6ncsc6n(-c6ccc(F)cc6)c5=O)cc4F)c3s2)c1` [Embodiment 6], the IC50 was in the range of 10 to 100 nM in assay [1] and 100 to 500 nM in assay [2]. For the compound `CCn1cnc(-c2cc3nccc(Oc4ccc(NC(=O)c5cc6ncsc6n(-c6ccc(F)cc6)c5=O)cc4F)c3s2)c1` [Embodiment 7], the IC50 in assay [1] was 10 to 100 nM; in assay [2] (Homo sapiens), 100 to 500 nM. On the same counts, the results for `Cc1n[nH]c2nccc(Oc3ccc(NC(=O)c4cc5ncsc5n(-c5ccc(F)cc5)c4=O)cc3F)c12` [Embodiment 8] are 10 to 100 nM and 500 to 5000 nM. As to `O=C(Nc1ccc(Oc2ccnc(NC(=O)N3CCCC3)c2)c(F)c1)c1cc2ncsc2n(-c2ccc(F)cc2)c1=O` [Embodiment 9], the IC50 is under 10 nM in assay [1] and 100 to 500 nM in assay [2]. In the case of `CN1CCN(C(=O)Nc2cc(Oc3ccc(NC(=O)c4cc5ncsc5n(-c5ccc(F)cc5)c4=O)cc3F)ccn2)CC1` [Embodiment 10], the figures for the IC50 in assay [1] and in assay [2] (Homo sapiens) were 100 to 1000 nM and under 100 nM, respectively. Turning to `O=C(Nc1ccc(Oc2ccnc(NC(=O)N3CCOCC3)c2)c(F)c1)c1cc2ncsc2n(-c2ccc(F)cc2)c1=O` [Embodiment 11], the IC50 in assay [1] was in the range of 10 to 100 nM. For the compound `O=C(Nc1ccc(Oc2ccnc(NC(=O)N3CCC(O)CC3)c2)c(F)c1)c1cc2ncsc2n(-c2ccc(F)cc2)c1=O` [Embodiment 12], the results for the IC50 in assay [1] and in assay [2] (Homo sapiens) were 10 to 100 nM and 100 to 500 nM, respectively. `CN(C)CC1CCN(C(=O)Nc2cc(Oc3ccc(NC(=O)c4cc5ncsc5n(-c5ccc(F)cc5)c4=O)cc3F)ccn2)CC1` [Embodiment 13]: in assay [1], the IC50 was 10 to 100 nM. In the case of `CN(CCO)C(=O)Nc1cc(Oc2ccc(NC(=O)c3cc4ncsc4n(-c4ccc(F)cc4)c3=O)cc2F)ccn1` [Embodiment 14], the half-inhibitory concentration (IC50) in assay [1] lay within 10 to 100 nM. Take `CN(C)C/C=C/C(=O)Nc1cc(Oc2ccc(NC(=O)c3cc4ncsc4n(-c4ccc(F)cc4)c3=O)cc2F)ccn1` [Embodiment 15]: the IC50 in assay [1] was 10 to 100 nM.

Consider `CN1CCN(C(=O)Nc2nccc(Oc3ccc(NC(=O)c4cc5ncsc5n(-c5ccc(F)cc5)c4=O)cc3F)c2Cl)CC1` [Embodiment 16], for which the values for the IC50 in assay [1] and in assay [2] (Homo sapiens) were 100 to 1000 nM and 100 to 500 nM, respectively.

As to `O=C(Nc1ccc(Oc2ccnc(NC(=O)N3CCOCC3)c2Cl)c(F)c1)c1cc2ncsc2n(-c2ccc(F)cc2)c1=O` [Embodiment 17], the IC50 in assay [1] is under 10 nM; in assay [2] (Homo sapiens), 100 to 500 nM. The like results for `Nc1cc(Oc2ccc(NC(=O)c3cc4ncsc4n(-c4ccccc4CCO)c3=O)cc2F)ccn1` [Embodiment 18] were, in that order, 100 to 1000 nM and 500 to 5000 nM. For `Nc1nccc(Oc2ccc(NC(=O)c3cc4ncsc4n(-c4ccccc4CCO)c3=O)cc2F)c1Cl` [Embodiment 19], the IC50 in assay [1] is under 10 nM. For `COc1ccc2c(Oc3ccc(NC(=O)c4cc5ncsc5n(-c5ccccc5CCO)c4=O)cc3F)ccnc2c1` [Embodiment 20], the values for the IC50 in assay [1] and in assay [2] (Homo sapiens) were 100 to 1000 nM and under 100 nM, respectively. The like results for `O=C(Nc1ccc(Oc2ccnc3[nH]ccc23)c(F)c1)c1cc2ncsc2n(-c2ccccc2CCO)c1=O` [Embodiment 21] were, in that order, 10 to 100 nM and under 100 nM. On the same counts, the results for `COc1cc2c(Oc3ccc(NC(=O)c4cc5ncsc5n(-c5ccccc5CCO)c4=O)cc3F)ccnc2cc1OCCCN1CCOCC1` [Embodiment 22] are over 1000 nM and 500 to 5000 nM. The like results for `CN(C)c1nc2cc(C(=O)Nc3ccc(Oc4ccnc(N)c4Cl)c(F)c3)c(=O)n(-c3ccc(F)cc3)c2s1` [Embodiment 23] were, in that order, 10 to 100 nM and 100 to 500 nM. As for `CN(C)c1nc2cc(C(=O)Nc3ccc(Oc4ccnc(N)c4)c(F)c3)c(=O)n(-c3ccc(F)cc3)c2s1` [Embodiment 24], the IC50 in assay [1] is under 10 nM; in assay [2] (Homo sapiens), 100 to 500 nM. On the same counts, the results for `COc1ccc2c(Oc3ccc(NC(=O)c4cc5nc(N(C)C)sc5n(-c5ccc(F)cc5)c4=O)cc3F)ccnc2c1` [Embodiment 25] are 100 to 1000 nM and 500 to 5000 nM. Consider `CN(C)c1nc2cc(C(=O)Nc3ccc(Oc4ccnc5[nH]ccc45)c(F)c3)c(=O)n(-c3ccc(F)cc3)c2s1` [Embodiment 26], for which the IC50 in assay [1] is 10 to 100 nM; in assay [2] (Homo sapiens), 100 to 500 nM. In the case of `COc1cc2c(Oc3ccc(NC(=O)c4cc5nc(N(C)C)sc5n(-c5ccc(F)cc5)c4=O)cc3F)ccnc2cc1OCCCN1CCOCC1` [Embodiment 27], the IC50 in assay [1] was 10 to 100 nM. With `Cn1ncc2cc(C(=O)Nc3ccc(Oc4ccnc(N)c4)c(F)c3)c(=O)n(-c3ccc(F)cc3)c21` [Embodiment 28], the IC50 lay in the range of 100 to 1000 nM in assay [1] and 500 to 5000 nM in assay [2] (Homo sapiens).

Turning to `Cn1ncc2cc(C(=O)Nc3ccc(Oc4ccnc(N)c4Cl)c(F)c3)c(=O)n(-c3ccc(F)cc3)c21` [Embodiment 29], the IC50 in assay [1] was under 10 nM; in assay [2] (Homo sapiens) it was under 100 nM.

In the case of `COc1ccc2c(Oc3ccc(NC(=O)c4cc5cnn(C)c5n(-c5ccc(F)cc5)c4=O)cc3F)ccnc2c1` [Embodiment 30], the IC50 in assay [1] lay within 100 to 1000 nM. Regarding `Cn1ncc2cc(C(=O)Nc3ccc(Oc4ccnc5[nH]ccc45)c(F)c3)c(=O)n(-c3ccc(F)cc3)c21` [Embodiment 31], the IC50 lay in the range of 10 to 100 nM in assay [1] and 100 to 500 nM in assay [2] (Homo sapiens). On to `Cn1cnc2cc(C(=O)Nc3ccc(Oc4ccnc(N)c4Cl)c(F)c3)c(=O)n(-c3ccc(F)cc3)c21` [Embodiment 33], for which, in assay [1], the IC50 fell in the range of 10 to 100 nM.

Take `Cn1cnc2cc(C(=O)Nc3ccc(Oc4ccnc(N)c4)c(F)c3)c(=O)n(-c3ccc(F)cc3)c21` [Embodiment 35]: the IC50 in assay [1] lay within 100 to 1000 nM.

For the compound `CN1CCOc2cc(C(=O)Nc3ccc(Oc4ccnc(N)c4)c(F)c3)c(=O)n(-c3ccc(F)cc3)c21` [Embodiment 39], the IC50 in assay [1] was in the range of 10 to 100 nM. The same measure, in the same setting: next, `COc1ccc2c(Oc3ccc(NC(=O)c4cc5c(n(-c6ccc(F)cc6)c4=O)N(C)CCO5)cc3F)ccnc2c1` [Embodiment 40]: under 10 nM; `COc1cc2c(Oc3ccc(NC(=O)c4cc5c(n(-c6ccc(F)cc6)c4=O)N(C)CCO5)cc3F)ccnc2cc1OCCCN1CCOCC1` [Embodiment 42]: 100 to 1000 nM. On the same count and under the same terms, to `CN1CCOc2c1cc(C(=O)Nc1ccc(Oc3ccnc(N)c3)c(F)c1)c(=O)n2-c1ccc(F)cc1` [Embodiment 43] belongs 10 to 100 nM.

For the compound `COc1cc2c(Oc3ccc(NC(=O)c4cc5c(n(-c6ccc(F)cc6)c4=O)OCCN5C)cc3F)ccnc2cc1OCCCN1CCOCC1` [Embodiment 45], in assay [1], the IC50 is 100 to 1000 nM. Same read-out and setting: next, `CN1CCOc2c1cc(C(=O)Nc1ccc(Oc3ccnc(N)c3Cl)c(F)c1)c(=O)n2-c1ccc(F)cc1` [Embodiment 46]: 10 to 100 nM; `COc1ccc2c(Oc3ccc(NC(=O)c4cc5c(n(-c6ccc(F)cc6)c4=O)OCCN5C)cc3F)ccnc2c1` [Embodiment 47]: under 10 nM; `CCOc1c(C(=O)Nc2ccc(Oc3ccnc(N)c3)c(F)c2)c(=O)n(-c2ccc(F)cc2)c2scnc12` [Embodiment 48]: 100 to 1000 nM. Same read-out and setting: to `CCOc1c(C(=O)Nc2ccc(Oc3ccnc(N)c3Cl)c(F)c2)c(=O)n(-c2ccc(F)cc2)c2scnc12` [Embodiment 49] belongs under 10 nM; to `CCOc1c(C(=O)Nc2ccc(Oc3ccnc4cc(OC)ccc34)c(F)c2)c(=O)n(-c2ccc(F)cc2)c2scnc12` [Embodiment 50], 10 to 100 nM.

With `CN(C)c1c(C(=O)Nc2ccc(Oc3ccnc(N)c3)c(F)c2)c(=O)n(-c2ccc(F)cc2)c2scnc12` [Embodiment 52], the concentration for half-maximal inhibition (IC50) in assay [1] fell in the range of 10 to 100 nM. Turning to `CN(C)c1c(C(=O)Nc2ccc(Oc3ccnc(N)c3Cl)c(F)c2)c(=O)n(-c2ccc(F)cc2)c2scnc12` [Embodiment 53], the concentration for half-maximal inhibition (IC50) in assay [1] is under 10 nM. On the same count and under the same terms, next, `CN(C)c1c(C(=O)Nc2ccc(Oc3ccnc4[nH]ccc34)c(F)c2)c(=O)n(-c2ccc(F)cc2)c2scnc12` [Embodiment 55]: 10 to 100 nM; `CN(CCO)c1c(C(=O)Nc2ccc(Oc3ccnc(N)c3Cl)c(F)c2)c(=O)n(-c2ccc(F)cc2)c2scnc12` [Embodiment 57]: 100 to 1000 nM; `CN(CCO)c1c(C(=O)Nc2ccc(Oc3ccnc4[nH]ccc34)c(F)c2)c(=O)n(-c2ccc(F)cc2)c2scnc12` [Embodiment 59]: 100 to 1000 nM.
